≈ marks a conversion by molar mass, not a printed value. Where “and” joins values, the source holds several entries; their conditions need not be identical. Equal entries are not always repeated. Where two headings read alike, the source gives them in different places.
Legend:
[1] = tested on: G. lamblia strain WB trophozoites; assay: In vitro giardicidal assay (trophozoite subculture, Probit analysis); assay type: cell-based, Giardia lamblia; details: for IC50: Giardia duodenalis
Description: G. lamblia strain WB was cultured in a TYI-S-33 medium (Manassas, VA, USA) supplemented with 10% calf serum and bovine bile. In vitro susceptibility tests were conducted using 4 × 10^4 trophozoites of G. lamblia. […] Additionally, a control group was incubated solely in a culture medium containing DMSO. Following the incubation period, the trophozoites were washed and subcultured in a fresh medium without drugs for an additional 48 h. Subsequently, the trophozoites count was performed, and the median inhibitory concentration (IC50) was calculated with a Probit analysis. All experimental procedures were replicated in triplicate.

[2] = In vitro cytotoxic assay (CellTiter 96 AQueous One) in Huh-7; assay type: cell-based, human; details: human, Huh-7 cells, 48 h
Description: (§1) The cytotoxic assay of RetroABZ was carried out in Huh-7 (human hepatocellular carcinoma cell line) cells acquired from ATCC (American Type Culture Collection, Manassas, VA, USA). We also included an immortalized human epidermal keratinocyte line (HaCaT) as a control of non-cancerous cells. The cells were cultured in a DMEM medium (Invitrogen, Thermo Fisher Scientific, Inc., Waltham, MA, USA), supplemented with 10% fetal bovine serum (SFB, Invitrogen) and 2 mM glutamine. All cultures were maintained under standard culture conditions (37 °C and 5% CO2). For the cytotoxic assessment in a 96-well plate, 5000 cells per well were planted. […] The cellular viability was next calculated utilizing the CellTiter 96® AQueous One Solution Cell Proliferation Assay kit (Promega, Madison, WI, USA), following the manufacturer’s instructions. The experiments were carried out in triplicate in separate experiments. The Prism 8.0 statistical tool (Graphpad Software Inc., La Jolla, CA, USA) was used to examine the data, and a regression analysis was used to obtain the IC50.

[3] = tested on: Huh-7 (human hepatocellular carcinoma cell line); assay: as above; assay type: cell-based
Description: as §1

[4] = In vitro cytotoxic assay (CellTiter 96 AQueous One) in HaCaT; assay type: cell-based, human; details: human, HaCaT cells (immortalized keratinocytes)
Description: as §1

[5] = tested on: HaCaT (immortalized human keratinocytes); assay: as above; assay type: cell-based; details: 48 h
Description: as §1

G. lamblia (WB strain) = assay: In vivo antigiardial CD-1 mouse model; parameters: species or system CD-1 mice; details: for ED50: Giardia duodenalis, 48 h
Description: The in vivo antigiardial activity of the compounds was assessed following a previously described phenotypic drug screening method. Female CD-1 mice (16–24 g) were obtained from the animal house facility at Universidad Autónoma Metropolitana, Xochimilco, and were maintained under standard laboratory conditions. The experimental protocols were reviewed and approved by the Animal Care and Use Committee, ensuring compliance with the guidelines for the care and use of laboratory animals. The giardicidal effect of RetroABZ was evaluated on mice infected with trophozoites of the G. lamblia WB strain. Mice were orally treated with a mebendazole solution (10 mg/mouse/day) for 3 consecutive days to ensure their freedom from any potential protozoan infections. One week after treatment, three consecutive fecal examinations were conducted to confirm the absence of protozoan infections before proceeding with experimental infection. Mice (n = 6 per group) were intragastrically infected with 1 × 10^6 trophozoites in 300 µL of a TYI-S-33 medium (Manassas, VA, USA) using a silastic tube ([…]. outside diameter) attached to a 1 mL syringe. Six days after infection, mice were treated intragastrically with 300 µL of RetroABZ dissolved in 1 mL of a 2% DMSO solution in water. […] Five single doses (0.018, 0.037, 0.075, 0.15, and 0.3 mg/kg) of both compounds were evaluated. Forty-eight hours after the treatment (8 days post-infection), the mice were euthanized, and the entire small intestine was removed, opened longitudinally, and placed in 10 mL of a 10% PAF fixer for a minimum of 2 h. Tubes were then vortexed to ensure complete detachment of the trophozoites, and the number of organisms present was calculated for both the treated and control groups.
A data analysis was performed utilizing a Probit analysis. The percentage of surviving trophozoites was calculated by comparing their growth with the control group. To determine the dose required to kill 50% of the trophozoites (ED50), along with the 95% confidence limits, a Probit plot against the logarithm of the drug concentration was generated.

[6] = Thermodynamic aqueous solubility (shake-flask, HPLC); assay type: physicochemical; details: for solubility at 48 h: 37 °C, water, thermodynamic from solid
Description: The aqueous solubility of RetroABZ was assessed using the shake-flask saturation method, as described in previous studies. […] Subsequently, the solution was filtered through a 0.2 μm filter (Phenex-NY 4mm, Torrance, CA, USA). The aqueous solubility of the compound was then determined using an HPLC method. Experimentally, the compound RetroABZ was analyzed with high-performance liquid chromatography (HPLC PerkinElmer 200, Waltham, Massachusetts). The HPLC analysis was performed using an ultraviolet detector (UV/VIS 200). The analite was monitored at a wavelength of 254 nm. Chromatographic separation was performed using a Phenomenex Luna C18 (4.6 × 150 mm, 5 µm, Torrance, CA, USA). The mobile phase utilized in the study consisted of a mixture of methanol and water in a ratio of 60:40 (v/v). The elution from the stationary phase was conducted at a constant flow rate of 1 mL/min (isocratic mode). Aliquots of 20 µL were injected into the HPLC system and the total run time for each injection was set at 10 min; the analysis was performed for triplicate. […] Chromatographic separation was performed using a Phenomenex Luna C18 (4.6 × 150 mm, 5 µm). The mobile phase utilized was a mixture of methanol and a 0.05 M phosphate buffer (pH 5.7), 70:30 (v:v). The flow rate was kept constant at 1 mL/min. To prepare the saturated solution of the compound (1 mg/mL), it was stirred for 48 h at a constant temperature of 37 ± 2 °C. Subsequently, the solution was filtered through a 0.2 µm filter (Phenex-NY 4 mm). Aliquots of 20 µL were injected into the HPLC system, and the analysis was performed for triplicate.

[7] = tested on: Huh-7 (human hepatocellular carcinoma cell line); parameters: method as in PMID 35036753; details: albendazole, reported value; cited from earlier work
[8] = tested on: HaCaT (immortalized human keratinocytes); parameters: method as in PMID 35036753; details: albendazole, reported value; cited from earlier work
[9] = cited from earlier work
[10] = cited from earlier work; remark: listed apart in the source
[11] = infected CD-1 mice, single intragastric dose, 48 h after treatment, read-out: ED50

CCCSc1nc2cc(NC(=O)OC)ccc2[nH]1 [RetroABZ, Methyl (2-(propylthio)-1H-benzo[d]imidazol-5-yl)carbamate]
IC50 ([1]; trophozoites, 48 h incubation at 37 °C then 48 h subculture, read-out: IC50 G. lamblia): 0.083 ± 0.013 µM | in vitro giardicidal activity relative to albendazole ([1]; ratio of IC50 values): 2.4 times | CC50 at 48 h [2]: > 300 µM | CC50 ([3]; 48 h): 313 ± 22.2 µM | Selectivity Index CC50/IC50 Huh-7 ([3]; CC50 Huh-7 / IC50 G. lamblia): 3768 | CC50 at 48 h [4]: > 300 µM | CC50 [5]: 588 ± 18.5 µM | ED50 (G. lamblia (WB strain); [11]): 0.0188 µmol/kg and 0.005 mg/kg | in vivo giardicidal activity relative to albendazole (G. lamblia (WB strain); ratio of ED50 values): 11 fold | in vivo potency relative to metronidazole (G. lamblia (WB strain); ratio of ED50 values): 39 fold | solubility at 48 h ([6]; Solubility in water): 246 µg/mL (≈ 926 µM) | Solubility in water ([6]; 48 h): 245.74 ± 4.07 µg/mL (≈ 926 µM)

CCCSc1ccc2nc(NC(=O)OC)[nH]c2c1 [Albendazole]
IC50 ([1]; 48 h, read-out: IC50 G. lamblia, trophozoites, 48 h incubation at 37 °C then 48 h subculture): 0.196 ± 0.011 µM | ED50 (G. lamblia (WB strain)): 0.055 mg/kg and 0.207 µmol/kg | solubility at 48 h ([6]; 37 ± 2 °C, 48 h, read-out: Solubility in water): 10.6 ± 0.7 µg/mL (≈ 39.8 µM) | CC50 [7]: 79.7 ± 1 µM | CC50 [8]: 118.2 ± 1 µM | documented solubility ([9]; 25 °C): 0.02 µg/mL | reported solubility [9]: 0.2 µg/mL | oral bioavailability [10]: 5% | oral bioavailability ([10]; stated in discussion, no reference given): less than 5%

Cc1ncc([N+](=O)[O-])n1CCO [Metronidazole, reference compound]
ED50 (G. lamblia (WB strain); [11]): 0.194 mg/kg and 1.13 µmol/kg
